Assay results: patent publication US6500794B1, “Granulated bleaching activator” (Kao Corporation, priority 1999, dated 2002)

Assay: Solubility of component (a) in aqueous nonionic surfactant solution, requirements (1) and (2)
Format: physicochemical
Conditions: 10° C., stirred five minutes; for solubility of the component (a), Condition (2): 0.1 g component (a) (A-1) in 0.25 g nonionic surfactant / 500 ml water; for solubility of the component (a), Condition (1): 0.1 g component (a) (A-1) in 10 g nonionic surfactant / 500 ml water
Protocol: (1) when 0.1 g of the component (a) is added to an aqueous solution produced by dissolving 10 g of the component (b1) in 500 ml of water at 10° C. and the mixture was stirred for five minutes, the solubility of the component (a) just after the stirring is 50% by weight or more; and
Herein, the solubility was measured using the following method.
Method for Measuring Solubility
1 l glass beaker (cylinder type; inside diameter: 105 mm, height: 15 cm) was charged with 500 ml of an aqueous solution in which the component (b1) was dissolved in an amount corresponding to the requirements (1) and (2) and the solution was stirred (using a magnetic stirrer; a cylindrical stirrer piece with a diameter of 15 mm and a length of 52 mm, 200 rpm) in a thermostat kept at 10° C. At the stage in which the temperature of the solution reached 10° C., the powdery component (a) having a bulk density of […] and containing 10% by weight or less of particles with a grain size of 125 μm was added thereto in a prescribed amount and then the solution was stirred for 5 minutes. Thereafter, the solution was filtered through a membrane filter (Cellulose Nitrate A045A047A, 0.47 μm, manufactured by […]) and the content of the component (a) in the filtrate was determined by using high performance liquid chromatography to determine the solubility by the following formula. [formula]
Granulated Bleaching activator having the compositions shown in Table 2 were prepared by using the bleaching activator A-1 and nonionic surfactants B-1 and B-2 described below according to the method described below. Also, granulated bleaching activators were prepared in the same manner as above by using B′-1, B′-2 and B′-3 as comparative nonionic surfactants. Each solubility of these nonionic surfactants in the conditions (1) and (2) are shown below.

Substance | solubility of the component (a), Condition (2) [%] | solubility of the component (a), Condition (1) [%]
C12H25O—(EO)15—H [B′-3] | 3 | 46
C12H25O—(EO)5—(PO)2—(EO)5—H [Example B-1] | 7 | 79
C12H25O—(EO)10—(PO)4—H [Example B-2] | 0.5 | 81
C12H25O—(EO)7—H [B′-1] | 32 | 82
